We go through three compounds from ChEMBL document CHEMBL5512637, “Development of Membrane-Targeting Fluorescent 2-Phenyl-1H-phenanthro[9,10-d]imidazole-Antimicrobial Peptide Mimic Conjugates against Methicillin-Resistant Staphylococcus aureus” (J Med Chem, 2024).

A short description of series [1]: Toxicity in KM mouse infected with methicillin-resistant Staphylococcus aureus clinical isolate M-4 assessed as histopathological abnormality in spleen at 5 mg/kg, sc measured after 24 hrs by H and E staining based analysis. The format is organism-based. Particulars: in vivo.
Series [2] is described as follows: Toxicity in KM mouse infected with methicillin-resistant Staphylococcus aureus clinical isolate M-4 assessed as histopathological abnormality in kidneys at 5 mg/kg, sc measured after 24 hrs by H and E staining based analysis. It is filed as organism-based. Particulars: in vivo.
The nature of series [3]: Toxicity in KM mouse infected with methicillin-resistant Staphylococcus aureus clinical isolate M-4 assessed as histopathological abnormality in liver at 5 mg/kg, sc measured after 24 hrs by H and E staining based analysis. It is filed as organism-based. Particulars: in vivo.
Series [4] relates to Staphylococcus aureus. Kind of series: Bactericidal activity against Staphylococcus aureus ATCC 29213 at 8 times MIC incubated upto 8 hrs by time kill assay. It is filed as functional, organism-based.
Series [5] can be described thus: Toxicity in KM mouse infected with methicillin-resistant Staphylococcus aureus clinical isolate M-4 assessed as histopathological abnormality in heart at 5 mg/kg, sc measured after 24 hrs by H and E staining based analysis. It is filed as organism-based. Particulars: in vivo.
Series [6] can be described thus: Toxicity in KM mouse infected with methicillin-resistant Staphylococcus aureus clinical isolate M-4 assessed as histopathological abnormality in lungs at 5 mg/kg, sc measured after 24 hrs by H and E staining based analysis. The format is organism-based. The following applies: in vivo.
Series [7] has as its system Staphylococcus aureus. Put plainly: Bactericidal activity against methicillin-resistant Staphylococcus aureus clinical isolate M-4 at 8 times MIC incubated upto 8 hrs by time kill assay. It is filed as functional, organism-based.
Series [8] concerns Staphylococcus aureus. Kind of series: Antibacterial activity against methicillin-resistant Staphylococcus aureus clinical isolate M-4 infected in KM mouse assessed as survival rate of bacteria at 5 mg/kg, sc measured after 24 hrs relative to control. It is filed as functional.
Series [9] deals with Staphylococcus aureus. Kind of series: Antibacterial activity against methicillin-resistant Staphylococcus aureus clinical isolate M-2 incubated for 16 to 18 hrs CLSI based by microbroth dilution assay. Particulars: time 16-18 hrs. The format is functional. For orientation: Dilution methods test growth across graded concentrations, often in twofold steps.
Series [10] deals with Escherichia coli. Kind of series: Antibacterial activity against Escherichia coli ATCC 25922 incubated for 16 to 18 hrs CLSI based by microbroth dilution assay. The format is functional. The following applies: time 16-18 hrs.
Series [11] concerns Staphylococcus aureus. Kind of series: Antibacterial activity against methicillin-resistant Staphylococcus aureus clinical isolate M-4 incubated for 16 to 18 hrs CLSI based by microbroth dilution assay. The format is functional. The following applies: time 16-18 hrs.
Series [12] relates to Staphylococcus aureus. Kind of series: Bactericidal activity against Staphylococcus aureus ATCC 29213 assessed as increase in fluorescence intensity at MIC incubated for 180 mins. It is filed as functional, organism-based.
Series [13] relates to Staphylococcus aureus. Put plainly: Antibacterial activity against methicillin-resistant Staphylococcus aureus clinical isolate M-9 incubated for 16 to 18 hrs CLSI based by microbroth dilution assay. The format is functional. Particulars: time 16-18 hrs.
The test system of series [14] is Staphylococcus aureus. Kind of series: Antibacterial activity against methicillin-resistant Staphylococcus aureus clinical isolate M-5 incubated for 16 to 18 hrs CLSI based by microbroth dilution assay. The following applies: time 16-18 hrs. The format is functional.
Series [15] concerns Staphylococcus aureus. Put plainly: Antibacterial activity against methicillin-resistant Staphylococcus aureus clinical isolate M-7 incubated for 16 to 18 hrs CLSI based by microbroth dilution assay. It is filed as functional. Particulars: time 16-18 hrs.
In series [16] the test system is Staphylococcus aureus. Kind of series: Antibacterial activity against Staphylococcus aureus ATCC 29213 incubated for 16 to 18 hrs CLSI based by microbroth dilution assay. It is filed as functional. The following applies: time 16-18 hrs.
For series [17], the system named is Staphylococcus aureus. Kind of series: Antibacterial activity against methicillin-resistant Staphylococcus aureus clinical isolate M-8 incubated for 16 to 18 hrs CLSI based by microbroth dilution assay. The format is functional. The following applies: time 16-18 hrs.
Series [18] deals with Staphylococcus aureus. Kind of series: Antibacterial activity against methicillin-resistant Staphylococcus aureus clinical isolate M-1 incubated for 16 to 18 hrs CLSI based by microbroth dilution assay. The format is functional. The following applies: time 16-18 hrs.
Series [19] deals with Staphylococcus aureus. Put plainly: Antibacterial activity against methicillin-resistant Staphylococcus aureus clinical isolate M-3 incubated for 16 to 18 hrs CLSI based by microbroth dilution assay. It is filed as functional. Particulars: time 16-18 hrs.
The subject of series [20] is Staphylococcus aureus. Put plainly: Antibacterial activity against methicillin-resistant Staphylococcus aureus clinical isolate M-10 incubated for 16 to 18 hrs CLSI based by microbroth dilution assay. The format is functional. The following applies: time 16-18 hrs.
Series [21] deals with Staphylococcus aureus. Kind of series: Antibacterial activity against methicillin-resistant Staphylococcus aureus clinical isolate M-6 incubated for 16 to 18 hrs CLSI based by microbroth dilution assay. It is filed as functional. The following applies: time 16-18 hrs.
For series [22], the system named is Staphylococcus aureus. Kind of series: Bactericidal activity against Staphylococcus aureus ATCC 29213 assessed as fluorescent signal at MIC incubated for 20 mins. The format is functional, organism-based.
The nature of series [23]: Selectivity index, ratio of HC50 for sheep erythrocytes to MIC for Staphylococcus aureus ATCC 29213. Particulars: read-out: Selectivity Index. The format is toxicity.
Series [24] in a line: Hemolytic activity in sheep erythrocytes incubated for 1 hr by absorbance based assay. It is filed as toxicity, cell-based, Ovis aries, Erythrocyte.

Active and inactive are the calls of the source. The calls are words filed in the database; no cut-off is given here.

As to `CN[C@H](CC(C)C)C(=O)N[C@H]1C(=O)N[C@@H](CC(N)=O)C(=O)N[C@H]2C(=O)N[C@H]3C(=O)N[C@H](C(=O)N[C@H](C(=O)O)c4cc(O)cc(O)c4-c4cc3ccc4O)[C@H](O)c3ccc(c(Cl)c3)Oc3cc2cc(c3O[C@@H]2O[C@H](CO)[C@@H](O)[C@H](O)[C@H]2O[C@H]2C[C@](C)(N)[C@H](O)[C@H](C)O2)Oc2ccc(cc2Cl)[C@H]1O` [VANCOMYCIN], the Activity result in series [1], in series [2], in [3], in series [5] and in [6] was “Non-Toxic” throughout. The outcome in series [4] and in series [7] was Active. In addition, the survival at 5 mg/kg in series [8] stood at 2.15%.
The MIC is the lowest concentration that inhibits growth of the organism. Higher therefore signals a need for much substance. With `CN(C)c1ccc(-c2nc3c4ccccc4c4ccccc4c3n2CCCCBr)cc1`, the MIC in [9], in series [10], in series [11], in series [13], in series [14] and in series [15] was > 64 µg/mL throughout. For the same compound, the MIC in [16], in series [17], in series [18], in series [19], in series [20] and in [21] was > 64 µg/mL each time. Moreover, the outcome in [12] was inactive.
Broadly, the HC50 is the concentration that lyses half of the red blood cells. High values mean less damage to red cells, low ones more damage to red cells. In the case of `CCCCCNC(=O)C[N+](C)(C)CCCn1c(-c2ccc(N(C)C)cc2)nc2c3ccccc3c3ccccc3c21.[Br-]`, the minimal inhibitory concentration (MIC) in series [9] is 8 µg/mL; in series [10], 64 µg/mL; in series [11], 4 µg/mL; in [13] it was 4 µg/mL; in series [14], 8 µg/mL; in series [15], 4 µg/mL. Also, the minimal inhibitory concentration (MIC) in [16], in series [17], in series [18], in series [19], in [20] and in series [21] was 8 µg/mL throughout. In addition, the result in [22] was Active. Moreover, in series [23], the selectivity ratio was > 80. In addition, in series [24], the HC50 at 1 h was > 640 µg/mL.
